Consider 9 molecules from patent US20230233690A1, “ANDROGEN RECEPTOR PROTEIN DEGRADERS” (THE REGENTS OF THE UNIVERSITY OF MICHIGAN, priority 2020, published 2023).

Data set [1] in a line: PK parameters in male ICR mice. Type of data set: in vivo. How it is done: (§1) The pharmacokinetics (PK) of representative Compounds of the Disclosure were evaluated in mice or rats to provide an assessment of their oral bioavaibility. All animal experiments were performed under the guidelines of the University of Michigan Committee for Use and Care of Animals and using an approved animal protocol.

Data set [2] in a line: PK parameters in male SD rats. The settings on record: for AUC(0-t) / clearance / Vd / Cmax / half-life: rat, in vivo; for clearance: read-out: Cl-obs; for Vd: read-out: Vss. Type of data set: in vivo. The protocol: as §1
Data set [3] deals with AR protein. The data set is described as follows: Western blotting of AR protein degradation in MDA-MB-453 cells. Type of data set: cell-based. More on the design: key: A: >90% degradation (24 hr treatment); B: >50% degradation but <90% (24 hr treatment); C: >10% degradation but <50% (24 hr treatment); D: No significant degradation (24 hr treatment). The following applies: 24 hr treatment. The protocol: The appropriate cell line, e.g., prostate cancer LNCaP, Vcap, or MDA-MB-453 cell line, was treated with Compounds of the Disclosure. The treated cells were lysed with RIPA buffer. The AR level in the cell lysates was examined by western blotting and a specific AR antibody (ab194196, Abcam, Cambridge, Mass. 02139) with concentration of 1:20,000. GAPDH was used as a loading control.
(§2) Bands were quantified with ImageJ software. The relative numbers of each band obtained from normalization with its corresponding GAPDH level were compared with Prism 8 software. The DC50 values were produced from Prism 8, and the DC90 values were calculated with an equation=Bottom+(Top−Bottom)/(1+10^((Log EC50−X)*HillSlope) based on DC50 and Hillslope values.
The amount of AR protein degradation in LNCaP, VCap, and MDA-MB-453 cells caused representative Compounds of the Disclosure at the concentrations indicated is presented in Table 4 and Table 5.

A short description of data set [4]: PK parameters in male mice (Table 9). Type of data set: in vivo. The protocol:
as §1

Data set [5] has as its target T1, AR protein (Homo sapiens, UniProt P10275).
T1 construct: endogenous in cells; host or cells: VCaP
T1 sequence (P10275 1-920): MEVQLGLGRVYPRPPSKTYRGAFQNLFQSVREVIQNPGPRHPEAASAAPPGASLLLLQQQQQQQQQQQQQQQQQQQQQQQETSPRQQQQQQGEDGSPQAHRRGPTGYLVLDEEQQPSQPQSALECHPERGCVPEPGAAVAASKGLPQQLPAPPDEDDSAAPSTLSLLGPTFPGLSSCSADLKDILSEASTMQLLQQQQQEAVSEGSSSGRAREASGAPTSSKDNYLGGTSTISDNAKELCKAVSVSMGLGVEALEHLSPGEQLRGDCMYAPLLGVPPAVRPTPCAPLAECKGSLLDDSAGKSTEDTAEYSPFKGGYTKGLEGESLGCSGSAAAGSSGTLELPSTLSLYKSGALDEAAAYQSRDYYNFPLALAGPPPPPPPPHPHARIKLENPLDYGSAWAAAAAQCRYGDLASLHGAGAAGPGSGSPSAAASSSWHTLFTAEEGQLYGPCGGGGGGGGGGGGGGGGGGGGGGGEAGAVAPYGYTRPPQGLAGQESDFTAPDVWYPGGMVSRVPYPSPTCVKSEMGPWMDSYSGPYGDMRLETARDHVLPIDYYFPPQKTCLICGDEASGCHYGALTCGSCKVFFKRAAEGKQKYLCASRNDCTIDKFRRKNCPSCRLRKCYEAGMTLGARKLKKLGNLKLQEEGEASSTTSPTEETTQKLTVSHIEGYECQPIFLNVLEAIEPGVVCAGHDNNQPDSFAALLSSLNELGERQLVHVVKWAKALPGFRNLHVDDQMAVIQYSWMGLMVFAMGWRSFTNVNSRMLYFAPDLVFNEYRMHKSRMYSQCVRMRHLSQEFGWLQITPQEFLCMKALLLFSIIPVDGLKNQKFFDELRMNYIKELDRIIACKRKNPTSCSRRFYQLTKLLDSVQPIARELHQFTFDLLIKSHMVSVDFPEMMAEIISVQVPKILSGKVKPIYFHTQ
The data set is described as follows: Western blotting of AR protein degradation in VCaP cells. The class given is cell-based. How it is done: The treated cells were lysed with RIPA buffer. […] GAPDH was used as a loading control.
as §2
Background: In western blotting, separated proteins are transferred to a membrane and probed.

Usually Vss stands for a proportionality between amount in the body and measured concentration, not a real space. Broadly, the Cmax is the peak of the concentration-time curve. As to `CC1(C)[C@H](NC(=O)c2ccc(N3CCN(CC4CCN(c5ccc6c(c5)C(=O)N(C5CCC(=O)NC5=O)C6=O)CC4)CC3)cc2)C(C)(C)[C@H]1Oc1ccc(C#N)c(Cl)c1` (stereo partly shown) [Cpd. No. 46, N-((1r,3r)-3-(3-chloro-4-cyanophenoxy)-2,2,4,4-tetramethylcyclobutyl)-4-(4-((1-(2-(2,6-dioxopiperidin-3-yl)-1,3-dioxoisoindolin-5-yl)piperidin-4-yl)methyl)piperazin-1-yl)benzamide], in data set [1] (IV 2 mg/kg), the AUC(0-t) was found to be 13298.5 ng·h/mL, the Cl-obs came out at 1.2 mL/min/kg and the Vss was 2.7 L/kg. In addition, in data set [1] (PO 5 mg/kg), the AUC(0-t) was 22360.5 ng·h/mL, the highest concentration (Cmax) is listed as 1304.3 ng/mL, the F is reported as 67.3% and the T1/2 is 18.8 h.
Consider `CC1(C)[C@H](NC(=O)c2ccc(N3CCN(CC4CN(c5ccc6c(c5)C(=O)N(C5CCC(=O)NC5=O)C6=O)C4)CC3)cc2)C(C)(C)[C@H]1Oc1ccc(C#N)c(Cl)c1` (stereo partly shown) [Cpd. No. 112, N-((1r,3r)-3-(3-chloro-4-cyanophenoxy)-2,2,4,4-tetramethylcyclobutyl)-4-(4-((1-(2-(2,6-dioxopiperidin-3-yl)-1,3-dioxoisoindolin-5-yl)azetidin-3-yl)methyl)piperazin-1-yl)benzamide], for which, in data set [1] (IV 2 mg/kg), the AUC(0-t) is 11034.8 ng·h/mL, the Cl-obs was determined as 1.9 mL/min/kg and the Vss is listed as 2.7 L/kg. In data set [1] (PO 5 mg/kg), this molecule had an AUC(0-t) of 20599.8 ng·h/mL, a Cmax of 1389.4 ng/mL, an F of 74.7% and a T1/2 of 12.0 h.
The term half-life denotes the time needed for the level to fall by half in the phase considered. On to `CC1(C)[C@H](NC(=O)c2ccc(N3CCN(C4CN(c5ccc6c(c5)C(=O)N(C5CCC(=O)NC5=O)C6=O)C4)CC3)cc2)C(C)(C)[C@H]1Oc1ccc(C#N)c(Cl)c1` (stereo partly shown) [Cpd. No. 113, N-((1r,3r)-3-(3-chloro-4-cyanophenoxy)-2,2,4,4-tetramethylcyclobutyl)-4-(4-(1-(2-(2,6-dioxopiperidin-3-yl)-1,3-dioxoisoindolin-5-yl)azetidin-3-yl)piperazin-1-yl)benzamide], for which the values for the F in data set [2] (PO 5 mg/kg) and in data set [1] (PO 5 mg/kg) were 25.0% and 62.2%, respectively. Besides, the AUC(0-t) in data set [2] (IV 2 mg/kg) came out at 9140 ng·h/mL; in data set [2] (PO 5 mg/kg) it was 5720 ng·h/mL; in data set [1] (mouse, in vivo, IV 2 mg/kg, read-out: AUC0-t) it was 14600 ng·h/mL; in data set [1] (mouse, in vivo, PO 5 mg/kg, read-out: AUC0-t), 22700 ng·h/mL. The clearance in data set [2] (IV 2 mg/kg) amounted to 3.1 mL/min/kg; in data set [1] (mouse, in vivo, IV 2 mg/kg, read-out: Cl-obs) it was 1.7 mL/min/kg. Further, the Vd in data set [2] (IV 2 mg/kg) was 2 L/kg; in data set [1] (mouse, in vivo, IV 2 mg/kg, read-out: Vss), 1.7 L/kg. Also, the Cmax in data set [2] (PO 5 mg/kg) turned out to be 414 ng/mL; in data set [1] (mouse, in vivo, PO 5 mg/kg, read-out: Cmax) it was 1820 ng/mL. The half-life is 10.4 h in data set [2] (PO 5 mg/kg) and 10.3 h in data set [1] (mouse, in vivo, PO 5 mg/kg).
Take `CC1(C)[C@H](NC(=O)c2ccc(N3CCN(C4CCN(c5ccc6c(c5)C(=O)N(C5CCC(=O)NC5=O)C6=O)CC4)CC3)cc2)C(C)(C)[C@H]1Oc1ccc(C#N)c(Cl)c1` (stereo partly shown) [Cpd. No. 114, N-((1r,3r)-3-(3-chloro-4-cyanophenoxy)-2,2,4,4-tetramethylcyclobutyl)-4-(4-(1-(2-(2,6-dioxopiperidin-3-yl)-1,3-dioxoisoindolin-5-yl)piperidin-4-yl)piperazin-1-yl)benzamide]: in data set [2] (PO 5 mg/kg), the F came out at 11.4%, the AUC(0-t) turned out to be 4160 ng·h/mL, the highest level (Cmax) was 100 ng/mL and the half-life is 8.9 h. In data set [2] (IV 2 mg/kg), the AUC(0-t) was 1190 ng·h/mL, the clearance turned out to be 7.7 mL/min/kg and the Vd came to 2.5 L/kg. In data set [1] (IV 2 mg/kg), this molecule yielded an AUC(0-t) of 15758.8 ng·h/mL, a Cl-obs of 1.7 mL/min/kg and a Vss of 1.5 L/kg. In data set [1] (PO 5 mg/kg), this molecule yielded an AUC(0-t) of 14587.7 ng·h/mL, a Cmax of 980.1 ng/mL, an F of 37.0% and a T1/2 of 11.2 h.
For `N#Cc1ccc(OC2CCC(Oc3ccc(C#CC4CCN(CC5CCN(c6ccc7c(c6)C(=O)N(C6CCC(=O)NC6=O)C7=O)CC5)CC4)cc3)CC2)cc1Cl` (stereo not shown) [compound 51], in the data set on AR protein [3], the “AR protein degradation MDA-MB-453 10 nM” value is listed as “D” and the “AR protein degradation MDA-MB-453 100 nM” value is on record as “D”.
Regarding `N#Cc1ccc(O[C@H]2CC[C@H](Oc3ccc(C4CCN(CC5CCN(c6ccc7c(c6)C(=O)N(C6CCC(=O)NC6=O)C7=O)CC5)CC4)cc3)CC2)cc1Cl` (stereo partly shown) [compound 52], in the data set with AR protein [3], the “AR protein degradation MDA-MB-453 10 nM” value was “D” and the “AR protein degradation MDA-MB-453 100 nM” value is “D”.
For `CC1(C)[C@H](NC(=O)c2ccc(N3CCC(N4CCN(c5ccc6c(c5)C(=O)N(C5CCC(=O)NC5=O)C6=O)CC4)CC3)cc2)C(C)(C)[C@H]1Oc1ccc(C#N)c(Cl)c1` (stereo partly shown) [compound 189, N-((1r,3r)-3-(3-chloro-4-cyanophenoxy)-2,2,4,4-tetramethylcyclobutyl)-4-(4-(4-(2-(2,6-dioxopiperidin-3-yl)-1,3-dioxoisoindolin-5-yl)piperazin-1-yl)piperidin-1-yl)benzamide], in data set [1] (IV 1 mg/kg), the AUC(0-t) was determined as 4333.7 ng·h/mL, the Cl-obs is 2.2 mL/min/kg and the Vss came out at 3.8 L/kg. In data set [1] (PO 3 mg/kg), this molecule registered an AUC(0-t) of 3127 ng·h/mL, a Cmax of 207 ng/mL, an F of 24% and a T1/2 of 12.4 h.
For `CC1(C)[C@H](NC(=O)c2ccc(N3CCC(CN4CCN(c5ccc6c(c5)C(=O)N(C5CCC(=O)NC5=O)C6=O)CC4)CC3)cc2)C(C)(C)[C@H]1Oc1ccc(C#N)c(Cl)c1` (stereo partly shown) [compound 190, N-((1r,3r)-3-(3-chloro-4-cyanophenoxy)-2,2,4,4-tetramethylcyclobutyl)-4-(4-((4-(2-(2,6-dioxopiperidin-3-yl)-1,3-dioxoisoindolin-5-yl)piperazin-1-yl)methyl)piperidin-1-yl)benzamide], in data set [1] (IV 1 mg/kg), the AUC(0-t) stood at 2565 ng·h/mL, the Cl-obs turned out to be 3.2 mL/min/kg and the Vss turned out to be 6.8 L/kg. In data set [1] (PO 3 mg/kg), the AUC(0-t) worked out at 2550.1 ng·h/mL, the Cmax was 134.4 ng/mL, the F came to 33.1% and the T1/2 stood at 67.8 h.
What is called Tmax is the time from dosing to the highest level. `CN(c1ccc(C#N)c(Cl)c1)[C@H]1CC[C@H](NC(=O)c2ccc(N3CC(N4CCN(c5ccc6c(c5)C(=O)N(C5CCC(=O)NC5=O)C6=O)CC4)C3)cc2)CC1` (stereo partly shown) [compound 240, N-((1r,4r)-4-((3-chloro-4-cyanophenyl)(methyl)amino)cyclohexyl)-4-(3-(4-(2-(2,6-dioxopiperidin-3-yl)-1,3-dioxoisoindolin-5-yl)piperazin-1-yl)azetidin-1-yl)benzamide]: in data set [4] (ICR, mouse, in vivo, IV 1 mg/kg), the clearance was 3.5 mL/min/kg. In data set [4] (IV 1 mg/kg), the “AUC(0-t)” value is 4234 ng·h/mL, the T1/2 is on record as 7.5 h and the Vss came out at 2.1 L/kg. In addition, in data set [4] (PO 3 mg/kg), the “AUC(0-t)” value was 8637 ng·h/mL, the Cmax is reported as 484 ng/mL, the T1/2 came to 26.8 h and the time of peak concentration (Tmax) was 4.7 h. In data set [4] (PO 3 mg/kg vs IV 1 mg/kg), this molecule had an F of 67%. In addition, the “% AR protein degradation in VCaP Cells” value at AR protein [5] (0.001 μM) stood at 82%. On AR protein [5] (0.01 μM), the “% AR protein degradation in VCaP Cells” value is recorded as 87%. In addition, at AR protein [5] (0.1 μM), the “% AR protein degradation in VCaP Cells” value is reported as 88%. Further, the “% AR protein degradation in VCaP Cells” value on AR protein [5] (1 μM) is 75%.
